Measurements taken from patent publication US20220249522A1, “Hypoxia Targeting Compositions and Combinations Thereof with a PARP Inhibitor and Methods of Use Thereof” (The Board of Trustees of the Leland Stanford Junior …, priority 2018, published 2022).

Columns and labels:
[1] = test system: PARP enzyme activity in OVCAR8 xenografts; test: PAR levels in tumor lysates of xenografts (western blot); type: in vivo; settings: olaparib 50 mg/kg daily intraperitoneal for 2 days
Protocol: OVCAR8 xenografts were established by subcutaneous injection of tumor cells in serum-free media/matrigel mix. Once tumors reached a size of about 100 mm^3, animals were divided into the following groups: (i) vehicle (10% 2-hydroxy-propyl-β-cyclodextrin/PBS) once a day via intraperitoneal injection (ii) olaparib (50 mg/kg) administered daily via intraperitoneal injection for 2 days. 3 animals were used per group.
Following completion of each treatment regimen, tumors were collected for analysis (FIG. 7A). PARP enzyme activity (measured via formation of PAR) was evaluated using western blot analysis.

[2] = test system: PARP enzyme activity in OVCAR8 cells; test: Western blot analysis of PAR formation; type: cell-based; settings: olaparib 1 μM or talazoparib 10 nM, 7 days
Protocol: (§1) FIGS. 5A and 5B show western blot analyzes of the levels of poly(ADP-ribose) (PAR) in OVCAR8 cells (FIG. 5A) and HT1080 cells (FIG. 5B) following treatment with a vehicle, olaparib (AZD-2281; 1 μM), or talazoparib (BMN 673; 10 nM) cultured in 21% oxygen or 2% oxygen conditions.
(§2) Western blot analysis of PAR formation was conducted in OVCAR8 cells and HT1080 cells following treatment with a vehicle, olaparib (AZD-2281; 1 μM), or talazoparib (BMN 673; 10 nM) cultured in 21% oxygen or 2% oxygen conditions for 7 days. PAR levels in cell lysates were quantified using western blot.

[3] = test system: PARP enzyme activity in HT1080 cells; test: Western blot analysis of PAR formation; type: cell-based; settings: olaparib 1 μM or talazoparib 10 nM, 7 days
Protocol: as §1, §2

OVCAR8 cell line = test: Colony formation survival after 7 days PARP inhibitor in 21%, 5% or 2% oxygen; type: cell-based; settings: for survival in the presence of PARP inhibitor: olaparib 1 μM or talazoparib 10 nM; for survival fraction versus correspondingly treated samples at 21% oxygen: 2% oxygen; for survival fraction versus correspondingly treated samples at 21% oxygen / survival fraction: olaparib 0-1 μM or talazoparib 0-10 nM; for survival fraction: 21% oxygen
Text: (§3) FIGS. 1A-1D show plots of survival fraction versus olaparib (AZD-2281) concentration for SUM149 (FIG. 1A), CAPAN-1 (FIG. 1B), HT1080 (FIG. 1C), and OVCAR8 (FIG. 1D) cell lines cultured in 21% oxygen or 2% oxygen conditions.
(§4) FIGS. 2A-2D show plots of survival fraction versus talazoparib (BMN 673) concentration for SUM149 (FIG. 2A), CAPAN-1 (FIG. 2B), HT1080 (FIG. 2C), and OVCAR8 (FIG. 2D) cell lines cultured in 21% oxygen or 2% oxygen conditions.
(§5) Specifically, a series of cell lines deficient for HR were treated with PARP inhibitors (olaparib or talazoparib (BMN 673)) for 7 days in 21% oxygen (representative of normoxic conditions) or 2% oxygen (representative of hypoxic conditions). In duplicates, 250-2000 cells of each cell line were seeded in 6-well plates and treated with varying concentrations of olaparib (0-1 μM) or talazoparib (0-10 nM). At the end of the treatment, media from each well was changed to drug-free media and cells were incubated to allow for formation of colonies. At the end of each incubation, colonies were fixed in 70% ethanol and stained with Crystal Violet to facilitate counting of colonies. At least 3 biological replicates were performed for each condition tested. The HR deficient cell lines treated were SUM149 (a BRAC1 mutant, triple negative breast cancer cell line), CAPAN-1 (a BRAC2 mutant, pancreatic cancer cell line), HT1080 (an IDH mutant, fibrosarcoma cell line), and OVCAR8 (a hypermethylated BRAC1 promoter, ovarian serous adenocarcinoma (high grade) cell line).
These observations were further evaluated using the OVCAR8 cell line samples at 21% oxygen, 5% oxygen, and 2% oxygen concentrations. Specifically, OVCAR8 cell line samples were cultured in 21% oxygen, 5% oxygen, or 2% oxygen conditions and were treated with a vehicle, olaparib (1 μM), or talazoparib (BMN 673; 10 nM) for 7 days. At the end of the treatment, media from each well was changed to a drug-free media and cells were incubated to allow for formation colonies.

HT1080 cell line = test: Colony formation survival after 7 days PARP inhibitor in 21% or 2% oxygen; type: cell-based; settings: olaparib 0-1 μM or talazoparib 0-10 nM; for survival fraction versus correspondingly treated samples at 21% oxygen: 2% oxygen; for survival fraction: 21% oxygen
Text: as §3, §4, §5

SUM149 cell line = test: as above; type: cell-based; settings: olaparib 0-1 μM or talazoparib 0-10 nM; for survival fraction versus correspondingly treated samples at 21% oxygen: 2% oxygen; for survival fraction: 21% oxygen
Text: as §3, §4, §5

CAPAN-1 cell line = test: as above; type: cell-based; settings: olaparib 0-1 μM or talazoparib 0-10 nM; for survival fraction versus correspondingly treated samples at 21% oxygen: 2% oxygen; for survival fraction: 21% oxygen
Text: as §3, §4, §5

[4] = test system: breast patient-derived tumor xenografts (PDTXs); test: Olaparib efficacy in breast PDTX models in relation to hypoxia score; type: in vivo; settings: archived PDTX data of Bruna et al; hypoxia signature of Buffa et al
Text: FIGS. 7A-7D show a schematic of diagram of olaparib treatment in OVCAR8 xenografts (FIG. 7A), a Western blot analysis of PAR levels in tumor lysates (FIG. 7B), immunohistochemical staining of vehicle- and olaparib-treated tumors (FIG. 7C), and sensitivity to olaparib inversely correlates with hypoxia in Breast PDX models (FIG. 7D).
Efficacy of olaparib in a range of patient-derived tumor xenografts (PDTXs) were previously tested in vivo by Bruna et al and the results archived in a biobank (http://caldaslab.cruk.cam.ac.uk/bcape) (see Bruna et al. Cell 167, 260-274 (2016), the disclosure of which is incorporated herein by reference). The efficacy of olaparib in these breast PDTX models in relation to their hypoxia levels was analyzed. […] (Buffa et al. Br J Cancer 102, 428-35 (2010), the disclosure of which is incorporated herein by reference). This is in accordance with the data from in vitro studies.

OVCAR8 cells [5] = test: Survival fraction after 96 hours tirapazamine, PARP inhibitor or combination; type: cell-based; settings: tirapazamine alone 0.1 μM or 1 μM, 21% or 2% oxygen
Protocol: FIGS. 10A-10C show histograms of survival fractions of OVCAR8 cells treated with a vehicle, tirapazamine, olaparib, olaparib plus tirapazamine, talazoparib, or talazoparib plus tirapazamine.
(§6) The in vitro efficacy of single agent tirapazamine or a single agent PARP inhibitor (olaparib or talazoparib) or combinations of tirapazamine and a PARP inhibitor (olaparib or talazoparib) was assessed in HR deficient cell lines (OVCAR8 and SUM149) at 21% oxygen and 2% oxygen concentrations. Specifically, OVCAR8 cells were seeded and treated with one of the following for 96 hours in 21% oxygen or 2% oxygen concentrations: (i) vehicle; (ii) tirapazamine (TPZ; 0.1 μM or 1 μM); (iii) olaparib (OL; 1 μM); (iv) tirapazamine (at concentrations above) plus olaparib (1 μM); (v) talazoparib (BMN; 10 nM); or tirapazamine (at concentrations above) plus talazoparib (10 nM). […] At the end of the treatment, media from each sample was changed to a drug-free media and cells were incubated to allow for formation colonies before survival fraction was determined.

[6] = test system: non-small cell lung cancer and head and neck cancer; settings: background statement; cited from earlier work
OVCAR8 cells [7] = test: Tirapazamine x PARPi dose matrix, survival and synergy analysis (Combenefit); type: cell-based; settings: for tirapazamine doses required to achieve a synergy score of 30-40: with 10 nM BMN673; for tirapazamine dose required for a synergy score of 20-30: with 0.1 μM olaparib
Protocol: FIGS. 8A and 8B show survival percentage of OVCAR8 cells treated with olaparib (0.001-10 μM) and TPZ (0.1-50 μM) or BMN673 (0.01-20 nM) and TPZ (0.1-50 μM) (FIG. 8A), and HSA synergism analysis of OVCAR8 cells treated with varying doses of TPZ and olaparib or TPZ and BMN673 (FIG. 8B).
(§7) The effect of combining a hypoxia activated prodrug with PARPi on cellular toxicity was assessed. […] Combenefit; a validated, open-access software program was used to analyze the data and quantify possible synergistic or antagonistic drug interactions, and relative cell kill data are presented as survival curves (FIG. 8A& 9A), while synergy scores are presented in matrix format (FIG. 8B& 9B). […] Examples are highlighted with the red squares in the matrix plots. In OVCAR8 cells for example, tirapazamine doses required to achieve a synergy score of 30-40 when cells are treated with 10 nM BMN673 are 0.5-1 μM in hypoxia and 5-10 μM in normoxia.

SUM149 cells [8] = test: Survival fraction after 96 hours tirapazamine, PARP inhibitor or combination; type: cell-based; settings: tirapazamine alone 0.1 μM or 1 μM, 21% or 2% oxygen
Protocol: FIGS. 11A-11C show histograms of survival fractions of SUM149 cells treated with a vehicle, tirapazamine, olaparib, olaparib plus tirapazamine, talazoparib, or talazoparib plus tirapazamine.
as §6

SUM149 cells [9] = test: Tirapazamine x PARPi dose matrix, survival and synergy analysis (Combenefit); type: cell-based; settings: combination with PARPi (olaparib and BMN673)
Protocol: FIGS. 9A and 9B show survival percentage of SUM149 cells treated with olaparib (0.001-10 μM) and TPZ (0.1-50 μM) or BMN673 (0.01-20 nM) and TPZ (0.1-50 μM) (FIG. 9A), and HSA synergism analysis of SUM149 cells treated with varying doses of TPZ and olaparib or TPZ and BMN673 (FIG. 9B).
as §7

[10] = 2% oxygen compared to 5% oxygen
[11] = 2% oxygen compared to 21% oxygen
[12] = 5% oxygen compared to 21% oxygen

SMILES | PAR formation ([2]; 2% oxygen) | PAR formation ([2]; 21% oxygen) | PAR formation ([3]; 2% oxygen) | PAR formation ([3]; 21% oxygen) | survival in the presence of PARP inhibitor (OVCAR8 cell line; [10]) | survival in the presence of PARP inhibitor (OVCAR8 cell line; [11]) | survival fraction versus correspondingly treated samples at 21% oxygen (OVCAR8 cell line) | survival in the presence of PARP inhibitor (OVCAR8 cell line; [12]) | survival fraction (OVCAR8 cell line) | survival fraction versus correspondingly treated samples at 21% oxygen (HT1080 cell line) | survival fraction (HT1080 cell line) | survival fraction versus correspondingly treated samples at 21% oxygen (SUM149 cell line) | survival fraction (SUM149 cell line) | survival fraction versus correspondingly treated samples at 21% oxygen (CAPAN-1 cell line) | survival fraction (CAPAN-1 cell line) | other results
O=C(c1cc(Cc2n[nH]c(=O)c3ccccc23)ccc1F)N1CCN(C(=O)C2CC2)CC1 [olaparib] | reduced PAR formation | reduced PAR formation | reduced PAR formation | reduced PAR formation | significantly improved survival | significantly improved survival | higher survival fractions | significantly improved survival | reduced | higher survival fractions | reduced | higher survival fractions | reduced | higher survival fractions | reduced | PAR formation in xenograft samples [1]: no evidence of PAR formation; correlation between hypoxia score of the tumors and their sensitivity to olaparib therapy [4]: strong inverse correlation
Cn1ncnc1[C@H]1c2n[nH]c(=O)c3cc(F)cc(c23)N[C@@H]1c1ccc(F)cc1 [talazoparib] | reduced PAR formation | reduced PAR formation | reduced PAR formation | reduced PAR formation | significantly improved survival | significantly improved survival | higher survival fractions | significantly improved survival | reduced | higher survival fractions | reduced | higher survival fractions | reduced | higher survival fractions | reduced | 
Nc1n[n+]([O-])c2ccccc2[n+]1[O-] [tirapazamine, 3-amino-1,2,4-benzotriazine-1,4-dioxide] |  |  |  |  |  |  |  |  |  |  |  |  |  |  |  | cell survival fraction as compared to the vehicle (OVCAR8 cells [5]): did not have a significant effect; efficacy in clinical trials [6]: lack of efficacy; fold lower doses of tirapazamine required under hypoxic conditions to achieve similar or even higher synergy scores to normoxic conditions (OVCAR8 cells [7]; combination with PARPi (olaparib and BMN673)): 10 fold; tirapazamine doses required to achieve a synergy score of 30-40 (OVCAR8 cells [7]; hypoxia): 0.5 to 1 µM; tirapazamine doses required to achieve a synergy score of 30-40 (OVCAR8 cells [7]; normoxia): 5 to 10 µM; tirapazamine dose required for a synergy score of 20-30 (OVCAR8 cells [7]; hypoxia): 1 µM; tirapazamine dose required for a synergy score of 20-30 (OVCAR8 cells [7]; normoxia): 10 µM; cell survival fraction as compared to the vehicle (SUM149 cells [8]): did not have a significant effect; fold lower doses of tirapazamine required under hypoxic conditions to achieve similar or even higher synergy scores to normoxic conditions (SUM149 cells [9]): 10 fold
